In patent publication EP4813986A1, “COMPOUND FOR REDUCING SERUM CONCENTRATION OF RBP4, AND USE” (Heronova Pharmaceuticals, LLC, priority 2023, dated 2025):
Where two headings read alike, the source gives them in different places.

Columns and labels:
[1] = Pharmacokinetic test, single oral dose, plasma LC-MS/MS; format: in vivo; settings: mouse, male ICR mice; for half-life: read-out: half-life T1/2 (converted); for Cmax: read-out: peak concentration Cmax; for Tmax: read-out: peak time Tmax
Experimental: Test Method: Three ICR mice (male) were used for each compound, with five groups in total. Mice were treated with a single oral dose of 10 mg/kg or 5 mg/kg. For each mouse, blood samples were collected at 0.25, 0.5, 1, 2, 4, and 8 hours after administration. Whole blood samples were placed in test tubes containing EDTA-K2, inverted up and down several times, and then centrifuged at 6000 rpm, 4°C for 15 minutes to obtain plasma. The concentration of the compound in plasma samples was determined using the LC-MS/MS method. Table 4 Pharmacokinetic Results of Different Compounds

in vitro = settings: microsomes, pH 7.4
Experimental: Phosphate buffer preparation: Weigh 7.098 g of disodium hydrogen phosphate, add 500 mL of pure water and dissolve by ultrasonication to obtain a disodium hydrogen phosphate solution. Weigh 3.400 g of potassium dihydrogen phosphate, add 250 mL of pure water and dissolve by ultrasonication to obtain a potassium dihydrogen phosphate solution. The disodium hydrogen phosphate solution and potassium dihydrogen phosphate solution were mixed and adjusted to pH 7.4+0.2.
10 mM NADPH preparation: Weigh an appropriate amount of NADPH (reduced coenzyme II), freshly prepare a 10 mM working solution with phosphate buffer, and the final concentration is 1 mM.
Incubation system preparation: Prepare the suspension into the incubation plate according to Table 5, and pre-incubate in a 37°C water bath for 10 min. Table 5 Incubation System Preparation
2 µL of positive control or test compound working solution was added to 358 µL of the incubation system, mixed uniformly by vortexing, and all samples were prepared in duplicate. 40 µL of 10 mM NADPH was added to the system, mixed uniformly by low-speed vortexing, and the reaction timing was started. […] Centrifuge at 4700 rpm, 4°C for 15 minutes to precipitate proteins. Transfer 100 µL of the supernatant to the sample plate, add 100 µL of pure water and mix well for UPLC-MS/MS analysis. Table 6 Liver Microsome Stability Results

RBP4 = biological target: T1, RBP4 (Mus musculus, UniProt Q00724); assay: Plasma RBP4 content detection test (ELISA) after single oral dose; format: in vivo, ICR male mice; settings: 5 mg/kg oral, maximum reduction within 5 to 24 hours vs 0-hour value
T1 construct: from tissue; host or cells: plasma of ICR male mice
Experimental: Test Method: ICR male mice aged 7 to 8 weeks were adaptively fed for 3 to 7 days and randomly divided into groups (4 mice per group), and fasted for 12 hours before the test. Orbital venous blood samples were collected and plasma was separated before administration on the test day (0-hour value as the initial content). Then, test compounds at a dose of 1 mg/kg or 5 mg/kg were orally administered (vehicle: 5% DMSO + 10% cyclodextrin), and vehicle (5% DMSO + 10% cyclodextrin) was orally administered as a control group. Orbital venous blood samples were collected and plasma was separated at 5, 8, 10, 12, and 24 hours after compound administration. The RBP4 content in plasma samples was detected using Mouse RBP4 (Retinol Binding Protein 4, Plasma) ELISA Kit (immunoway, KE1574), the reduction rate was calculated, and the maximum reduction rate within 5 to 24 hours was selected. Reduction rate of RBP4 content in mouse plasma at different sampling time points = (Initial RBP4 content - RBP4 content at sampling point) / Initial RBP4 content. Table 2 Plasma RBP4 Reduction Levels of Different Compounds

[2] = in vivo, single oral dose 10 mg/kg

| AUC(0-t) ([1]; single oral dose 10 mg/kg) | half-life ([1]; single oral dose 10 mg/kg) | Cmax ([1]; single oral dose 10 mg/kg) | Tmax ([1]; single oral dose 10 mg/kg) | half-life at 1 µM (in vitro; human) | microsomal CLint at 1 µM (in vitro; human) | half-life at 1 µM (in vitro; mouse) | microsomal CLint at 1 µM (in vitro; mouse) | AUC(0-t) ([1]; single oral dose 5 mg/kg) | half-life ([1]; single oral dose 5 mg/kg) | Cmax ([1]; single oral dose 5 mg/kg) | Tmax ([1]; single oral dose 5 mg/kg) | Maximum Plasma RBP4 Reduction Rate (5 mg/kg dose) (RBP4) | AUC(0-t) [1, 2] | half-life [1, 2] | Cmax [1, 2] | Tmax [1, 2] | Compound |
| --- | --- | --- | --- | --- | --- | --- | --- | --- | --- | --- | --- | --- | --- | --- | --- | --- | --- |
| 383 ng·h/mL | 230 min | 285 ng/mL | 30 min | 63 min | 22 µL/min/mg | 9.46 min | 146 µL/min/mg | – | – | – | – | – | – | – | – | – | COCC(=O)N1CCc2c(C(=O)N3CC=C(c4cccc(F)c4C(F)(F)F)CC3)n[nH]c2C1 [Compound 6] |
| – | – | – | – | > 180 min | < 7.44 µL/min/mg | > 180 min | < 7.44 µL/min/mg | 490 ng·h/mL | 101 min | 235 ng/mL | 30 min | – | – | – | – | – | NC(=O)C(=O)N1CCc2c(C(=O)N3CC=C(c4ccc(F)c(F)c4C(F)(F)F)CC3)n[nH]c2C1 [Compound 16] |
| 6040 ng·h/mL | – | 1200 ng/mL | 120 min | > 180 min | < 7.44 µL/min/mg | 30.2 min | 45.8 µL/min/mg | – | – | – | – | 67% | – | – | – | – | O=C(c1n[nH]c2c1CCNC2)N1CC=C(c2cccc(F)c2C(F)(F)F)CC1 [Compound 13] |
| 119 ng·h/mL | 442 min | 159 ng/mL | 30 min | 18.7 min | 74 µL/min/mg | 26.3 min | 52.7 µL/min/mg | – | – | – | – | – | – | – | – | – | COCCN1CCc2c(C(=O)N3CC=C(c4cccc(F)c4C(F)(F)F)CC3)n[nH]c2C1 [Compound 3] |
| – | – | – | – | > 180 min | < 7.44 µL/min/mg | 45.9 min | 30.2 µL/min/mg | – | – | – | – | 41% | 2460 ng·h/mL | 167 min | 1240 ng/mL | 30 min | CC(=O)N1CCc2c(C(=O)N3CC=C(c4ccc(F)c(F)c4C(F)(F)F)CC3)n[nH]c2C1 [Compound 1] |
| 1200 ng·h/mL | 113 min | 468 ng/mL | 30 min | > 180 min | < 7.44 µL/min/mg | 18.6 min | 74.5 µL/min/mg | – | – | – | – | 72% | – | – | – | – | NC(=O)CN1CCc2c(C(=O)N3CC=C(c4ccc(F)c(F)c4C(F)(F)F)CC3)n[nH]c2C1 [Compound 10] |
| 1530 ng·h/mL | 89.4 min | 1050 ng/mL | 30 min | 103 min | 13.4 µL/min/mg | 15.6 min | 89 µL/min/mg | – | – | – | – | 64% | – | – | – | – | COCC(=O)N1CCc2c(C(=O)N3CC=C(c4ccc(F)c(F)c4C(F)(F)F)CC3)n[nH]c2C1 [Compound 7] |
| 41.9 ng·h/mL | 119 min | 22.3 ng/mL | 50 min | > 180 min | < 7.44 µL/min/mg | 74.6 min | 18.6 µL/min/mg | – | – | – | – | – | – | – | – | – | CC(C(N)=O)C(=O)N1CCc2c(C(=O)N3CC=C(c4ccc(F)c(F)c4C(F)(F)F)CC3)n[nH]c2C1 (stereo not shown) [Compound 19] |
| – | – | – | – | 126 min | 11 µL/min/mg | 4.2 min | 330 µL/min/mg | – | – | – | – | – | – | – | – | – | CN(C)C(=O)CN1CCc2c(C(=O)N3CC=C(c4ccc(F)c(F)c4C(F)(F)F)CC3)n[nH]c2C1 [Compound 12] |
| – | – | – | – | 54.3 min | 25.5 µL/min/mg | 10.7 min | 130 µL/min/mg | – | – | – | – | – | – | – | – | – | O=C(c1n[nH]c2c1COCC2)N1CC=C(c2cccc(F)c2C(F)(F)F)CC1 [Compound 23] |
| – | – | – | – | 140 min | 9.9 µL/min/mg | 11.4 min | 121 µL/min/mg | – | – | – | – | – | – | – | – | – | CNC(=O)CN1CCc2c(C(=O)N3CC=C(c4ccc(F)c(F)c4C(F)(F)F)CC3)n[nH]c2C1 [Compound 11] |
| – | – | – | – | > 180 min | < 7.44 µL/min/mg | 17.4 min | 79.9 µL/min/mg | 319 ng·h/mL | 185 min | 141 ng/mL | 30 min | 77% | – | – | – | – | NC(=O)CN1CCc2c(C(=O)N3CC=C(c4cccc(F)c4C(F)(F)F)CC3)n[nH]c2C1 [Compound 15] |
| 556 ng·h/mL | 199 min | 515 ng/mL | 30 min | 70.4 min | 19.7 µL/min/mg | 6.79 min | 204 µL/min/mg | – | – | – | – | – | – | – | – | – | [2H]C([2H])([2H])OCC(=O)N1CCc2c(C(=O)N3CC=C(c4cccc(F)c4C(F)(F)F)CC3)n[nH]c2C1 [Compound 8] |
| 1200 ng·h/mL | 152 min | 519 ng/mL | 30 min | > 180 min | < 7.44 µL/min/mg | 136 min | 10.2 µL/min/mg | – | – | – | – | 14% | – | – | – | – | NC(=O)C(=O)N1CCc2c(C(=O)N3CC=C(c4cccc(F)c4C(F)(F)F)CC3)n[nH]c2C1 [Compound 21] |
| – | – | – | – | > 180 min | < 7.44 µL/min/mg | 36.4 min | 38.1 µL/min/mg | – | – | – | – | – | 17800 ng·h/mL | 201 min | 2860 ng/mL | 108 min | O=C(c1n[nH]c2c1COCC2)N1CC=C(c2ccc(F)c(F)c2C(F)(F)F)CC1 [Compound 17] |
| – | – | – | – | 94.4 min | 14.7 µL/min/mg | 18.8 min | 73.6 µL/min/mg | – | – | – | – | – | – | – | – | – | CC(=O)N1CCc2c(C(=O)N3CC=C(c4cccc(F)c4C(F)(F)F)CC3)n[nH]c2C1 [Compound 2] |
| 208 ng·h/mL | 97.8 min | 112 ng/mL | 30 min | 99 min | 14 µL/min/mg | 13.7 min | 101 µL/min/mg | – | – | – | – | – | – | – | – | – | O=C1NCC[C@@H]1N1CCc2c(C(=O)N3CC=C(c4cccc(F)c4C(F)(F)F)CC3)n[nH]c2C1 [Compound 20] |
| 8830 ng·h/mL | 92.4 min | 3230 ng/mL | 40.2 min | – | – | – | – | – | – | – | – | – | – | – | – | – | CC(=O)N1CCc2c(C(=O)N3CCC(c4ccc(F)c(F)c4C(F)(F)F)CC3)n[nH]c2C1 [reference compound, 1-(3-(4-(3,4-difluoro-2-(trifluoromethyl)phenyl)piperidine-1-carbonyl)-4,5-dihydro-1H-pyrazolo[3,4-c]pyridin-6(7H)-yl)ethanone, reference compound] |
| 1030 ng·h/mL | 40 min | 1090 ng/mL | 30 min | 130 min | 10.6 µL/min/mg | 17.2 min | 80.8 µL/min/mg | – | – | – | – | 82% | – | – | – | – | [2H]C([2H])([2H])OCC(=O)N1CCc2c(C(=O)N3CC=C(c4ccc(F)c(F)c4C(F)(F)F)CC3)n[nH]c2C1 [Compound 9] |
| – | – | – | – | > 180 min | < 7.44 µL/min/mg | 30 min | 46.2 µL/min/mg | 6000 ng·h/mL | 452 min | 364 ng/mL | 318 min | 53% | – | – | – | – | O=C(c1n[nH]c2c1CCNC2)N1CC=C(c2ccc(F)c(F)c2C(F)(F)F)CC1 [Compound 14] |
| – | – | – | – | > 180 min | < 7.44 µL/min/mg | 18.8 min | 73.5 µL/min/mg | – | – | – | – | – | – | – | – | – | O=C1NCC[C@@H]1N1CCc2c(C(=O)N3CC=C(c4ccc(F)c(F)c4C(F)(F)F)CC3)n[nH]c2C1 [Compound 18] |
